Test [1] deals with Dermatobacter hominis S11-2. Nature of the test: MIC against bacteria isolated from acne lesions, Table 2. The class given is cell-based. The following applies: S112; Dermatobacter hominis S11-2, isolated from acne lesions; read-out: Minimum Inhibitory Concentration. Here is the method: (§1) MIC of besifloxacin and other antibiotics molecules were determined by micro broth dilution method as per the Clinical and Laboratory Standards Institute (CLSI) guideline. MIC assay is the determinant of the inherent anti-microbial potency of a particular molecule. For preparing inoculum, bacterial strains were cultured in Brain Heart Infusion Agar (BHIA) at 37° C. for 24 hours. […] For bacterial inoculum, bacterial culture turbidity was adjusted to 0.1 OD at 600 nm in UV-Visual spectrophotometer (approximately 1.5×10^8 cells/ml) and further diluted (100 times with sterile BHI broth). Diluted bacterial suspension (100 μl) was added to each well except sterility control wells (column 12 of 96 well plate). Column 11 of 96 well plate was used as growth control and vehicle control. The plates were incubated at 37° C. for 24 h. The MIC of the test compounds were determined by observing the lowest concentration of test compound that prevented the visual bacterial growth.
(§2) Different skin resident bacteria were isolated from acne lesions of moderate to severe acne patients.

The test system of test [2] is Kocuria sp. S18-1. The test is described as above. The class given is cell-based. The following applies: SP.S181; Kocuria sp. S18-1, isolated from acne lesions; read-out: Minimum Inhibitory Concentration. Here is the method: as §1, §2
For test [3], the system named is S. epidermidis S1-1. The description is as above. It counts as cell-based. The following applies: Staphylococcus epidermidis, S11; S. epidermidis S1-1, isolated from acne lesions; read-out: Minimum Inhibitory Concentration. On the procedure: as §1, §2
The test system of test [4] is K. pneumoniae S6-1. The test is described as above. The class given is cell-based. The following applies: Klebsiella pneumoniae, S61; K. pneumoniae S6-1, isolated from acne lesions; read-out: Minimum Inhibitory Concentration. Here is the method:
as §1, §2

The subject of test [5] is Enterobacter aerogenes M2-1. The description is as above. The following applies: Klebsiella aerogenes, M21; Enterobacter aerogenes M2-1, isolated from acne lesions; read-out: Minimum Inhibitory Concentration. The class given is cell-based. Here is the method:
as §1, §2

Test [6] relates to Microbacterium sp. S20-2. The test is described as above. It counts as cell-based. The note with it: Microbacterium sp. S20-2, isolated from acne lesions. On the procedure: as §1, §2
Test [7] concerns Staphylococcus haemolyticus M1-1. Described as above. It counts as cell-based. The following applies: M11; Staphylococcus haemolyticus M1-1, isolated from acne lesions; read-out: Minimum Inhibitory Concentration. Here is the method: as §1, §2
Test [8] has as its system Bacillus megaterium M1-2. Described as above. It counts as cell-based. The note with it: Priestia megaterium, M12., read-out: Minimum Inhibitory Concentration. Here is the method:
as §1, §2

In test [9] the test system is P. avidum S3-1. The test is described as above. It counts as cell-based. The note with it: Cutibacterium avidum, S31; P. avidum S3-1, isolated from acne lesions; read-out: Minimum Inhibitory Concentration. Here is the method: as §1, §2
The subject of test [10] is microorganisms that cause gram-negative folliculitis. Nature of the test: MIC, summary statements on gram-negative bacteria involved in GNF. The note with it: for Activity against gram-negative bacterial strains involved in GNF (in words): irrespective of response to other conventional antibiotics or quinolones, ampicillin/cefotaxime susceptible and resistant strains. It counts as cell-based. On the procedure: as §1
(§3) Besifloxacin HCL was tested against ampicillin and cefotaxime (3rd generation cephalosporin) susceptible and resistant gram-negative bacterial strains involved in GNF (gram negative folliculitis) by broth dilution method as per the Clinical & Laboratory Standards Institutes (CLSI) guidelines. MIC assay was performed in 96 well plates by micro broth dilution method, in 96 well plates, all the wells were added with 100 μl of sterilized Muller Hinton broth No: 2 cation broth (HiMedia, India). The initial stock of test compounds (1 mg/ml) were prepared in dimethyl sulfoxide (DMSO) and further dilutions were made in culture broth to get the desirable concentration. Then 100 μl of broth containing test compounds were initially added to the first column's wells and then serial dilution was performed up to well of 10th column. Wells of 11th and 12th column served as a positive and negative control respectively. Finally, 100 μl of inoculum (0.5 McFarland equal bacterial suspension was 100 times diluted in culture broth) was added to all the wells. Plates were incubated at 37° C. for 18-24 hrs. After incubation, MIC of each test compound was determined by observing the lowest concentration of test compound that has no visual growth compared to growth control. Minimum inhibitory concentration of besifloxacin, ampicillin and cefotaxime against gram negative bacterial strains were shown in Table 1.

Test [11] deals with Enterobacter sp. 1. Nature of the test: MIC, micro broth dilution in Muller Hinton broth (CLSI), Table 1B. The class given is cell-based. The note with it: read-out: Minimum Inhibitory Concentration. Here is the method: as §3
Background: Broth dilution looks for growth in wells or tubes with falling amounts of substance.

Test [12] has as its system Pseudomonas sp. 537. The description is as above. The class given is cell-based. The following applies: read-out: Minimum Inhibitory Concentration. On the procedure: as §3
The subject of test [13] is Escherichia coli 592. The description is as above. The following applies: read-out: Minimum Inhibitory Concentration. The class given is cell-based. Here is the method: as §3
In test [14] the test system is E. aerogenes M2-1 (clinical isolate). Nature of the test: MIC, micro broth dilution (CLSI), Table 1A. The class given is cell-based, Enterobacter aerogenes. The following applies: Klebsiella aerogenes. On the procedure:
as §1

Test [15] deals with E. aerogenes NCIM 5139 (wild type). Nature of the test: MIC, micro broth dilution (CLSI), Table 1A. It counts as cell-based, Enterobacter aerogenes. The note with it: Klebsiella aerogenes, NCIM5139. Here is the method: as §1

In brackets after ≈: the same amount, converted by molar mass. Entries after “also recorded” stand apart in the source; their conditions may differ.

With `N[C@@H]1CCCCN(c2c(F)cc3c(=O)c(C(=O)O)cn(C4CC4)c3c2Cl)C1` [Besifloxacin], the MIC came to 1 µg/mL (≈ 2.54 µM) in test [1]; 0.5 µg/mL (≈ 1.27 µM) in test [2]; 0.25 µg/mL (≈ 0.635 µM) in test [3]; 1 µg/mL (≈ 2.54 µM) in test [4]; 0.25 µg/mL (≈ 0.635 µM) in [5]; 0.13 µg/mL (≈ 0.33 µM) in [7]. Also, the MIC was 0.02 µg/mL (≈ 0.0508 µM) in test [8]; 0.5 µg/mL (≈ 1.27 µM) in test [9]; 0.125 to 16 µg/mL in [10] (range over strains, read-out: MIC of besifloxacin against microorganisms that cause gram-negative folliculitis); 16 µg/mL (≈ 40.6 µM) in test [11]; 1 µg/mL (≈ 2.54 µM) in test [12]; 0.5 µg/mL (≈ 1.27 µM) in [13]. Besides, the MIC in test [14] and in test [15] was 0.125 µg/mL (≈ 0.317 µM) throughout. Further, the “Minimum Inhibitory Concentration” value in test [6] was 0.5 µg/mL. Moreover, the “Activity against gram-negative bacterial strains involved in GNF (in words)” value in [10] is on record as “very effective; also recorded: efficacious”; in [10] (listed as besifloxacin), “susceptible”. Further, the “MIC better (lower) compared with conventional antibiotics” value in [10] (vs cefotaxime, ampicillin, clindamycin, tetracycline and erythromycin) was “at least 50%”.

The record behind these values is patent publication US20210393520A1, “TREATMENT OF GRAM-NEGATIVE FOLLICULITIS OR AN INFLAMMATION THEREOF WITH BESIFLOXACIN” (VYOME THERAPEUTICS LIMITED, priority 2018, published 2021).
